The values below come from EP4596547A1, “HETEROCYCLIC COMPOUND AND HARMFUL ARTHROPOD-CONTROLLING COMPOSITION CONTAINING SAME” (priority 2022, dated 2024).

Holding throughout (format): in vivo
Assay [1] has as its system cotton aphids (Aphis gossypii). In words: Test method 11: foliar spray on cucumber seedlings inoculated with cotton aphids (formulation per Formulation Example 5). Particulars: 120 h, sprayed 10 mL/seedling one day after inoculation, after 5 days, 25°C, read-out: control value.
Assay [2] concerns common cutworm (Spodoptera litura). Description: Test method 3: sprayed cabbage foliage cut out, second instar larvae of common cutworm released. Particulars: foliar, 120 h, sprayed 20 mL/seedling, five second instar larvae, after 5 days, 25°C. The protocol:
(§1) A test compound is formed into a formulation according to the method described in Formulation Example 1, and water containing 0.03% by volume of Shindain (registered trademark) is added thereto to prepare a diluted solution containing the test compound at a predetermined concentration.
A cabbage (Brassicae oleracea) seedling (2 to 3 true leaf stage) planted in a container is sprayed with the diluted solution at a rate of 20 mL/seedling. Thereafter, the foliage portion of the seedling is cut out and placed in a container on which filter paper is laid. Thereto are released five second instar larvae of common cutworm (Spodoptera litura). After 5 days, the number of surviving insects is counted, and the mortality is determined from the following equation. [formula]

A further assay concerns Culex pipiens pallens. In words: Test method 12: last-instar larvae of Culex pipiens pallens released into diluted solution. The note with it: 24 h, 30 last-instar larvae, one day later, 25°C. The protocol: The test compound is formulated according to the method described in Formulation Example 1, and water is added thereto to prepare a diluted solution containing the test compound at a predetermined concentration. 30 last-instar larvae of Culex pipiens pallens are released into the diluted solution, and the state of the larvae of Culex pipiens is examined one day later to determine the Mortality. The mortality is calculated by the following equation. [formula]

Assay [3] deals with diamondback moth (Plutella xylostella). Description: Test method 4: sprayed cabbage foliage cut out, second instar larvae of diamondback moth released. Particulars: foliar, 120 h, sprayed 20 mL/seedling, five second instar larvae, after 5 days, 25°C. The protocol:
as §1
A cabbage (Brassicae oleracea) seedling (2 to 3 true leaf stage) planted in a container is sprayed with the diluted solution at a rate of 20 mL/seedling. Thereafter, the foliage portion of the seedling is cut out and placed in a container on which filter paper is laid. Thereto are released five second instar larvae of diamondback moth (Plutella xylostella). After 5 days, the number of surviving insects is counted, and the mortality is determined from the following equation. [formula]

The test system is the same in assay [4]. Description: Test method 10: sprayed cabbage seedling, third instar larvae of diamondback moth released. Particulars: 144 h, sprayed 20 mL/seedling, 10 third instar larvae, after 6 days, 25°C. As for the experimental part:
(§2) A test compound is formed into a formulation according to the method described in Formulation Example 5, and water containing 0.03% by volume of Shindain (registered trademark) is added thereto to prepare a diluted solution containing the test compound at a predetermined concentration.
A cabbage (Brassicae oleracea) seedling (3 to 4 true leaf stage) planted in a container is sprayed with the diluted solution at a rate of 20 mL/seedling. Thereafter, 10 third instar larvae of diamondback moth (Plutella xylostella) are released. After 6 days, the number of surviving insects is counted, and the mortality is determined from the following equation. [formula]

The test system of assay [5] is cotton aphids (Aphis gossypii). Description: Test method 1: foliar spray on cucumber seedlings inoculated with cotton aphids (formulation per Formulation Example 1). The note with it: 120 h, 500 ppm, sprayed 10 mL/seedling one day after inoculation, surviving insects examined after 5 days, 25°C, read-out: control value.
The test system of another assay is Musca domestica. In words: Test method 8: container inner surface coated with test compound, Musca domestica. The note with it: 24 h, 40 mg/m^2 (800 ppm acetone solution), five adult female, 1 days, 25°C. As for the experimental part: An acetone solution prepared such that the amount of the test compound is 800 ppm is poured into a container having an internal volume of 20 mL, and the inner surface of the container is uniformly coated such that the amount of the test compound is 40 mg/m^2, and then dried.
Five adult female Musca domestica are placed in the container, and the lid is closed. After a lapse of a predetermined time, the state of Musca domestica is examined, and the mortality is determined. The mortality is calculated by the following equation. [formula]

The test system of the next assay is Aphis gossypii. In words: Test method 2: soil irrigation of cucumber seedlings, later inoculated with Aphis gossypii. Particulars: 144 h, irrigated 5 mL/seedling, inoculated after 7 days, surviving insects examined after 6 days, 25°C, read-out: control value. As for the experimental part: The test compound is formulated according to the method described in Formulation Example 5, and water is added thereto to prepare a diluted solution containing the test compound at a predetermined concentration. A cucumber (Cucumis sativus) seedling (second true leaf stage) planted in a container is irrigated with the diluted solution at a rate of 5 mL/seedling. After 7 days, the leaf surface of this seedling is inoculated with about 30 Aphis gossypii (whole stage). After 6 days, the number of surviving insects is examined, and the control value is determined by the following formula. [formula] • Characters in the formula represent the following meanings. • Cb: number of test insects in a non-treated section • Cai: number of surviving insects in a non-treated section at the time of investigation • Tb: number of test insects in a treated section • Tai: number of surviving insects in a treated section at the time of investigation Herein, the non-treated section means a section that is subjected to the same operation as that of the treated section except that the test compound is not used.

The test system of a further assay is Blattella germanica. In words: Test method 6: container inner surface coated with test compound, Blattella germanica. The note with it: 72 h. As for the experimental part: An acetone solution prepared such that the amount of the test compound is 800 ppm is poured into a container having an internal volume of 50 mL, and the inner surface of the container is uniformly coated such that the amount of the test compound is 40 mg/m^2, and then dried.
Five male imagoes of Blattella germanica are placed in the container, and the lid is closed. After a lapse of a predetermined time, the state of Blattella germanica is examined, and the mortality is determined. The mortality is calculated by the following equation. [formula]

For assay [6], the system named is common cutworm (Spodoptera litura). Description: Test method 9: sprayed cabbage seedling, third instar larvae of common cutworm released. Particulars: 144 h. The protocol:
as §2
A cabbage (Brassicae oleracea) seedling (3 to 4 true leaf stage) planted in a container is sprayed with the diluted solution at a rate of 20 mL/seedling. Thereafter, 10 third instar larvae of common cutworm (Spodoptera litura) are released. After 6 days, the number of surviving insects is counted, and the mortality is determined from the following equation. [formula]

For assay [7], the system named is Haemaphysalis longicornis. Description: Test method 7: container inner surface coated with test compound, Haemaphysalis longicornis nymphs. The note with it: 48 h, 100 mg/m^2 (2000 ppm acetone solution), five nymphs, 2 days, 25°C. The protocol:
An acetone solution prepared such that the amount of the test compound is 2000 ppm is poured into a container having an internal volume of 20 mL, and the inner surface of the container is uniformly coated such that the amount of the test compound is 100 mg/m^2, and then dried.
Five nymphs of Haemaphysalis longicornis are placed in the container, and the lid is closed. After a lapse of a predetermined time, the state of Haemaphysalis longicornis is examined to determine the mortality. The mortality is calculated by the following equation. [formula]

The test system of assay [8] is Western corn rootworm (Diabrotica virgifera virgifera). In words: whole plant or invertebrate. The note with it: 120 h. As for the experimental part:
Each 1 mg of the test compound is dissolved in 50 µL of a mixed solution of polyoxyethylene sorbitan monococoate and acetone (5 : 95 (volume ratio)). Water containing 0.03% by volume of Shindain (registered trademark) is added thereto to prepare a diluted solution containing the test compound at a predetermined concentration.
Young seedlings of maize (Zea mays) are immersed in the diluted solution for 30 seconds. Thereafter, the two […] are placed in a petri dish (90 mm diameter), and thereto are released 10 second instar larvae of Western corn rootworm (Diabrotica virgifera virgifera). After 5 days, the number of dead insects is counted, and the mortality is determined from the following equation. [formula]

Consider `CCSc1c(N(C)C(=O)c2ccc(C(F)(F)F)s2)nc2ccc(I)cn12` [compound 6], for which the mortality at 50 ppm in assay [1] was at least 90%. In addition, the mortality at 200 ppm in assay [1] is at least 90%; in assay [4] it was at least 80%. For the same molecule, the results for the mortality at 500 ppm in [2], in assay [3] and in assay [5] were at least 80%, at least 80% and at least 90%, respectively. Also, the mortality at 3.5 ppm in the assay with Culex pipiens pallens is above 90%. In the assay on Musca domestica, this molecule gave a mortality at 40 mg/m2, 40 mg/m2 of at least 80%.

In the case of `CCSc1c(N(C)C(=O)c2cnc(C(F)(F)F)s2)nc2ccc(I)cn12` [compound 7], the mortality at 50 ppm in [1] was at least 90%; in [4], at least 80%. Also, the mortality at 200 ppm in assay [1] was at least 90%; in assay [4], at least 80%. Moreover, the mortality at 3.5 ppm in the assay with Culex pipiens pallens is above 90%. For the same molecule, the results for the mortality at 500 ppm in assay [3] and in [5] were at least 80% and at least 90%, respectively. In the assay with Aphis gossypii, the mortality at 1000 ppm was at least 90%.

Turning to `CCSc1c(N(C)C(=O)c2cc(C(F)(F)F)n(C)n2)nc2ccc(I)cn12` [compound 16], the mortality at 200 ppm in [1] is at least 90%. Also, the mortality at 500 ppm was at least 80% in [2], at least 80% in assay [3] and at least 90% in assay [5]. The mortality at 3.5 ppm in the assay with Culex pipiens pallens is above 90%. In the assay on Musca domestica, this molecule registered a mortality at 40 mg/m2, 40 mg/m2 of at least 80%. Further, the mortality at 1000 ppm in the assay with Aphis gossypii was at least 90%.

`CCSc1c(N(C)C(=O)c2cnn(C(F)(F)F)c2)nc2ccc(I)cn12` [compound 23] displayed a mortality at 40 mg/m2, 40 mg/m2 in the assay with Blattella germanica of at least 80%. In addition, the mortality at 200 ppm in assay [1] was at least 90%; in assay [6] it was at least 80%. In addition, in the assay on Culex pipiens pallens, the mortality at 3.5 ppm is above 90%. For the same molecule, the mortality at 500 ppm is at least 80% in assay [3] and at least 90% in assay [5].

For `CCS(=O)(=O)c1c(N(C)C(=O)c2cnc(C(F)(F)F)s2)nc2ccc(I)cn12` [compound 40], the figures for the mortality at 50 ppm in [1] and in [4] were at least 90% and at least 80%, respectively. For the same molecule, the mortality at 200 ppm was at least 90% in [1] and at least 80% in assay [4]. Moreover, the mortality at 500 ppm in assay [2] is at least 80%; in [3], at least 80%; in assay [5] it was at least 90%. Also, the mortality at 3.5 ppm in the assay with Culex pipiens pallens was above 90%. For the same molecule, the mortality at 1000 ppm with Aphis gossypii was at least 90%.

On to `CCS(=O)(=O)c1c(N(C)C(=O)c2cnc(C(F)(F)F)s2)nc2ccc(Br)cn12` [compound 42], for which, in [1], the mortality at 50 ppm was at least 90%. The mortality at 200 ppm in assay [1] was at least 90%; in [4], at least 80%. The mortality at 3.5 ppm in the assay on Culex pipiens pallens was above 90%. Moreover, the mortality at 500 ppm is at least 80% in assay [3] and at least 90% in assay [5]. Also, the mortality at 1000 ppm in the assay with Aphis gossypii was at least 90%.

For the molecule `CCS(=O)(=O)c1c(N(C)C(=O)c2cnc(C(F)(F)F)s2)nc2ccc(C(F)(F)F)cn12` [compound 44], the mortality at 50 ppm in [1] is at least 90%. Also, the mortality at 200 ppm in assay [1] was at least 90%; in assay [4], at least 80%. Moreover, the mortality at 3.5 ppm in the assay on Culex pipiens pallens is above 90%. Further, the results for the mortality at 500 ppm in assay [3] and in assay [5] were at least 80% and at least 90%, respectively. Moreover, the mortality at 1000 ppm with Aphis gossypii was at least 90%.

On to `CC[S+]([O-])c1c(N(C)C(=O)c2cnc(C(F)(F)F)s2)nc2cc(I)ccn12` (centres unmarked) [compound 45], for which, in assay [1], the mortality at 50 ppm was at least 90% and the mortality at 200 ppm was at least 90%. In assay [7], this molecule registered a mortality at 100 mg/m2, 100 mg/m2 of at least 80%. The mortality at 3.5 ppm with Culex pipiens pallens is above 90%. Moreover, the mortality at 500 ppm in assay [5] was at least 90%.

`CCS(=O)(=O)c1c(N(C)C(=O)c2cnc(C(F)(F)F)s2)nc2cc(Br)ccn12` [compound 48]: the mortality at 50 ppm in assay [1] was at least 90%. In addition, the mortality at 200 ppm is at least 90% in assay [1] and at least 80% in assay [4]. The mortality at 500 ppm was at least 80% in assay [2], at least 80% in assay [3] and at least 90% in assay [5]. Also, the mortality at 3.5 ppm with Culex pipiens pallens is above 90%.

As for `CCS(=O)(=O)c1c(N(C)C(=O)c2cc(C(F)(F)F)n(C)n2)nc2ccc(I)cn12` [compound 52], the mortality at 50 ppm in assay [1] is at least 90%; in assay [4], at least 80%. In addition, the mortality at 200 ppm in [1] was at least 90%; in assay [8], at least 80%; in assay [4] it was at least 80%. Further, the mortality at 3.5 ppm in the assay on Culex pipiens pallens was above 90%. The mortality at 500 ppm was at least 80% in assay [3] and at least 90% in assay [5]. The mortality at 40 mg/m2, 40 mg/m2 with Musca domestica is at least 80%. The mortality at 1000 ppm with Aphis gossypii was at least 90%.
